In patent US5763443A, “MDR resistance treatment and novel pharmaceutically active riminophenazines” (priority 1994, dated 1998):
Converted amounts (≈) assume the structure as drawn. Where two headings read alike, the source gives them in different places.

Key:
[1] = tested on: multi-drug resistant (MDR) lung carcinoma cell line H69/LX4; test: cells; conditions: for IC50: Homo sapiens; for INCREASED SENSITIVITY H69/Lx4: Table VIII, values equal IC50 NONE / IC50 with VB 25 ng/ml of Table VII, 10080 min
Protocol: The riminophenazines of the above formula (I), contain an imino group. […] The potency of compounds of the above general formula, as inhibitors of multi-drug resistance, was assessed by sensitization of a P-glycoprotein positive cell line to drugs associated with this form of resistance. A human small cell lung cancer cell line H 69/P as well as a multi-drug resistance (MDR) sub-line H69/LX4 were used. These cell lines were obtained from the Medical Research Council Clinical Oncology and Radiotherapeutics Unit, Hills Road, Cambridge, England. The H69/LX4 line was selected in vitro by progressive exposure to increasing concentrations of doxorubicin in order to increase P-glycoprotein expression.
The cell lines used were human small cell lung cancer cell line HP69/P and a multi-drug resistant (MDR) sub-line H69/LX4, both of which were supplied by the MRC Clinical Oncology and Radiotherapeutics Unit, Hills Road, Cambridge, England. The maintenance of the cell lines and drug response assays was done as described by Twentyman et al in British Journal of Cancer Volume 65 pages 335-340. The H69/LX4 line was originally described by Twentyman et al in British Journal of Cancer Volume 53, pages 529-637 (1986).
The data in parenthesis represents fold sensitivity compared with the chemotherapeutic agent without the MDR inhibitor.
The results obtained, are illustrated graphically in FIGS. 4 to 7 of the accompanying drawings.
(§1) The general procedure set forth above was followed, i.e. 7 days incubation in the4 presence of doxorubicin at 12,5 ng/ml or vinblastine at 25 or 3 ng/ml.
(§2) The effects were examined over a seven (7) day exposure to different concentrations of B4119 and B4125 on the sensitivity of a doxorubicin resistant leukaemia cell line (K562/MMB) and a lung carcinoma cell line (H69/LX4) to doxorubicin (dox) and vinblastine (VB) using the MTT assay.

[2] = tested on: MDR leukaemia cell line K562/MMB; test: cells; conditions: for INCREASED SENSITIVITY K 562/MMB: Table VIII, values equal IC50 NONE / IC50 with VB 3 ng/ml of Table VII, 10080 min; for IC50: Homo sapiens; for MDR activity / sensitivity against cell line K562/MMP: compared with known reference compound B4100
Protocol: A third cell line (562/MMB) used was a MDR leukemia cell line selected in vitro by progressive exposure to increasing concentrations of vinblastine in order to increase P-glycoprotein expression. This cell line was developed in the Department of Immunology, University of Pretoria from K562 (ATCC CCL 243) supplied by Highveld Biological (Pty) Ltd, Sandton.
as §1, §2

[3] = 168 h, read-out: IC 50 H69/Lx4 NONE
[4] = read-out: IC 50 H69/Lx4 DOX 12 ng/ml
[5] = read-out: IC 50 H69/Lx4 VB 25 ng/ml
[6] = K562, 168 h, read-out: IC 50 K562/MMB NONE, Table VII, riminophenazine alone, 7 day
[7] = K562, read-out: IC 50 K562/MMB DOX 12 ng/ml, Table VII, with doxorubicin 12 ng/ml
[8] = K562, read-out: IC 50 K562/MMB VB 3 ng/ml, Table VII, with vinblastine 3 ng/ml

SMILES | IC50 [1, 3] | IC50 [1, 4] | IC50 [1, 5] | INCREASED SENSITIVITY H69/Lx4 [1] | INCREASED SENSITIVITY K 562/MMB [2] | IC50 [2, 8] | MDR activity / sensitivity against cell line K562/MMP [2] | also measured
CC1(C)CC(N=c2cc3n(-c4ccc(Cl)cc4)c4ccccc4nc-3cc2Nc2ccc(Cl)cc2)CC(C)(C)N1 [Compound B3786] | 0.608 µg/mL (≈ 1.07 µM) | 0.597 µg/mL (≈ 1.05 µM) | 0.169 µg/mL (≈ 0.296 µM) | 3.60 |  |  |  | 
CC1(C)CC(N=c2cc3n(-c4ccccc4)c4ccccc4nc-3cc2Nc2ccccc2)CC(C)(C)N1 [Compound B3962, N,5-bis(phenyl)-3,5-dihydro-3-[(2',2',6',6'-tetramethyl-4-piperidyl)imino]-2-phenazinamine] | 0.563 µg/mL (≈ 1.12 µM) | 0.427 µg/mL (≈ 0.851 µM) | 0.262 µg/mL (≈ 0.522 µM) | 2.15 | 4.07 |  |  | 
CC1(C)CC(N=c2cc3n(-c4ccccc4)c4ccc(Cl)cc4nc-3cc2Nc2ccccc2)CC(C)(C)N1 [Compound B4019] | 1.03 µg/mL (≈ 1.92 µM) | 0.771 µg/mL (≈ 1.44 µM) | 0.488 µg/mL (≈ 0.91 µM) | 2.11 |  |  |  | 
Cc1ccc(Nc2cc3nc4ccccc4n(-c4ccc(C)cc4)c-3cc2=NC2CC(C)(C)NC(C)(C)C2)cc1 [Compound B4070, N,5-bis(4-methylphenyl)-3,5-dihydro-3-[(2',2',6',6'-tetramethyl-4-piperidyl)imino]-2-phenazinamine] | 0.525 µg/mL (≈ 0.991 µM) | 0.312 µg/mL (≈ 0.589 µM) | 0.2 µg/mL (≈ 0.378 µM) | 2.63 | 2.94 | 0.054 µg/mL (≈ 0.102 µM) |  | IC50 [2, 6]: 0.159 µg/mL (≈ 0.3 µM); IC50 ([2]; K562, 168 h, read-out: IC 50 of riminophenazine, Doxorubicin, Table IV, K562/MMB, with doxorubicin 12 ng/ml, 7 day): 0.193 µg/mL (≈ 0.364 µM); IC50 ([2]; K562, 168 h, read-out: IC 50 of riminophenazine, None, Table IV, K562/MMB, riminophenazine alone, 7 day, mean of 2 experiments): 0.159 µg/mL (≈ 0.3 µM); IC50 ([2]; K562, 168 h, read-out: IC 50 of riminophenazine, Vinblastine, Table IV, K562/MMB, with vinblastine 3 ng/ml, 7 day): 0.054 µg/mL (≈ 0.102 µM); IC50 [2, 7]: 0.193 µg/mL (≈ 0.364 µM)
CC1(C)CC(N=c2cc3n(-c4ccc(Cl)cc4)c4ccc(Cl)cc4nc-3cc2Nc2ccc(Cl)cc2)CC(C)(C)N1 [Compound B4090] | 1.5 µg/mL (≈ 2.48 µM) | 1.01 µg/mL (≈ 1.66 µM) | 0.266 µg/mL (≈ 0.44 µM) | 5.64 | 7.30 | 0.027 µg/mL (≈ 0.0446 µM) | exceptionally good activity | 
CC1(C)CC(N=c2cc3n(-c4ccc(Cl)c(Cl)c4)c4ccccc4nc-3cc2Nc2ccc(Cl)c(Cl)c2)CC(C)(C)N1 [Compound B4100, reference compound] | 0.798 µg/mL (≈ 1.25 µM) | 0.582 µg/mL (≈ 0.91 µM) | 0.125 µg/mL (≈ 0.195 µM) | 6.38 | 3.53 |  |  | 
CC1(C)CC(N=c2cc3n(-c4cccc(Cl)c4)c4ccccc4nc-3cc2Nc2cccc(Cl)c2)CC(C)(C)N1 [Compound B4112, N,5-bis(3-chlorophenyl)-3,5-dihydro-3-[(2',2',6',6'-tetramethyl-4-piperidyl)-imino]-2-phenazinamine] | 0.62 µg/mL (≈ 1.09 µM) | 0.175 µg/mL (≈ 0.307 µM) | 0.029 µg/mL (≈ 0.0508 µM) | 21.38 | 19.5 | 0.008 µg/mL (≈ 0.014 µM) | exceptionally good activity | MDR activity against the cell line H69/LX4 [1]: very good activity; IC50 ([1]; read-out: IC50, plus VB): 0.029 µg/mL; IC50 ([1]; read-out: IC50, plus doxo): 0.62 µg/mL; direct cytotoxic activity [2]: direct cytotoxic activity in this cell line at reasonably low concentrations; IC50 [2, 6]: 0.156 µg/mL (≈ 0.273 µM); IC50 ([2]; K562, read-out: IC50, alone, Table V, K562/MMB (first value column, head not given)): 0.156 µg/mL (≈ 0.273 µM); IC50 ([2]; K562, read-out: IC50, plus VB, Table V, K562/MMB, vinblastine 3 ng/ml): 0.008 µg/mL; IC50 ([2]; K562, read-out: IC50, plus doxo, Table V, K562/MMB, doxorubicin 12 ng/ml): 0.066 µg/mL; IC50 [2, 7]: 0.066 µg/mL (≈ 0.116 µM); lowest concentration at which compound was active ([2]; K562/MMB, Example 6): 3 ng/mL
CC1(C)CC(N=c2cc3n(-c4cccc(Cl)c4)c4ccc(Cl)cc4nc-3cc2Nc2cccc(Cl)c2)CC(C)(C)N1 [Compound B4123, N,5-bis(3-chlorophenyl)-8-chloro-3,5-dihydro-3[(2',2',6',6'-tetramethyl-4-piperidyl)-imino]-2-phenazinamine] | 1.18 µg/mL (≈ 1.94 µM) | 1.02 µg/mL (≈ 1.69 µM) | 0.251 µg/mL (≈ 0.415 µM) | 4.69 | 6.80 | 0.049 µg/mL (≈ 0.081 µM) | exceptionally good activity | 
CC1(C)CC(N=c2cc3n(-c4cccc(C(F)(F)F)c4)c4ccc(Cl)cc4nc-3cc2Nc2cccc(C(F)(F)F)c2)CC(C)(C)N1 [Compound B4127, N,5-bis(3-trifluoromethylphenyl)-8-chloro-3,5-dihydro-3-[(2',2',6',6'-tetramethyl-4-piperidyl)-imino]-2-phenazinamine] | 1.32 µg/mL (≈ 1.97 µM) | 1.31 µg/mL (≈ 1.95 µM) | 0.454 µg/mL (≈ 0.675 µM) | 2.91 | 6.07 |  |  | 
CC1(C)CC(N=c2cc3n(-c4ccc(Cl)cc4Cl)c4ccccc4nc-3cc2Nc2ccc(Cl)cc2Cl)CC(C)(C)N1 [Compound B4128, N,5-bis(2,4-dichiorophenyl)-3,5-dihydro-3-[(2',2',6',6'-tetramethyl-4-piperidyl)-imino]-2-phenazinamine] | 1.23 µg/mL (≈ 1.92 µM) | 0.782 µg/mL (≈ 1.22 µM) | 0.434 µg/mL (≈ 0.679 µM) | 2.82 | 6.49 |  | increased substantially and unexpectedly | 
CCN(CC)CCCN=c1cc2n(-c3ccc(Cl)c(Cl)c3)c3ccccc3nc-2cc1Nc1ccc(Cl)c(Cl)c1 [Compound B4154] | 1.33 µg/mL (≈ 2.17 µM) | 0.648 µg/mL (≈ 1.06 µM) | 0.378 µg/mL (≈ 0.616 µM) | 3.52 | 2.99 |  |  | 
CC(C)c1ccc(Nc2cc3nc4cc(Cl)ccc4n(-c4ccc(C(C)C)cc4)c-3cc2=NC2CC(C)(C)NC(C)(C)C2)cc1 [Compound B4159, N,5-bis(4-isopropylphenyl)-8-chloro-3,5-dihydro-3-[(2',2',6',6'-tetramethyl-4-piperidyl)-imino]-2-phenazinamine] | 1.55 µg/mL (≈ 2.5 µM) | 1.09 µg/mL (≈ 1.76 µM) | 0.268 µg/mL (≈ 0.432 µM) | 5.79 | 7.02 |  | exceptionally good activity | 
CC1(C)CC(N=c2cc3n(-c4ccc(Cl)c(C(F)(F)F)c4)c4ccccc4nc-3cc2Nc2ccc(Cl)c(C(F)(F)F)c2)CC(C)(C)N1 [Compound B4163, N,5-bis[(3-trifluoromethyl)-4-chlorophenyl]-3,5-dihydro-3-[(2',2',6',6'-tetramethylpiperidyl)-imino]-2-phenazinamine] | 0.972 µg/mL (≈ 1.38 µM) | 0.846 µg/mL (≈ 1.2 µM) | 0.281 µg/mL (≈ 0.398 µM) | 3.46 | 10.63 | 0.032 µg/mL (≈ 0.0453 µM) | increased substantially and unexpectedly | 
COc1ccc(Nc2cc3nc4ccccc4n(-c4ccc(OC)cc4)c-3cc2=NC2CC(C)(C)NC(C)(C)C2)cc1 [Compound B4174, N,5-bis(4-methoxyphenyl)-3,5-dihydro-3-[(2',2',6',6'-tetramethyl-4-piperidyl)-imino]-2-phenazinamine] | 0.462 µg/mL (≈ 0.822 µM) | 0.587 µg/mL (≈ 1.04 µM) | 0.535 µg/mL (≈ 0.952 µM) | 0.86 | 1.78 |  |  | 
CC1(C)CC(N=c2cc3n(-c4ccc(OC(F)(F)F)cc4)c4ccccc4nc-3cc2Nc2ccc(OC(F)(F)F)cc2)CC(C)(C)N1 [Compound B4177, N,5-bis(4-trifluoromethoxyphenyl)-3,5-dihydro-3-[(2',2',6',6'-tetramethyl-4-piperidyl)-imino)-2-phenazinamine] | 0.6 µg/mL (≈ 0.896 µM) | 0.852 µg/mL (≈ 1.27 µM) | 0.056 µg/mL (≈ 0.0836 µM) | 10.71 |  |  |  | MDR activity against the cell line H69/LX4 [1]: very good activity
CO[C@@]12[C@H](COC(N)=O)C3=C(C(=O)C(C)=C(N)C3=O)N1C[C@@H]1N[C@@H]12 [Mitomycin C, reference compound] |  |  |  |  |  |  |  | IC50 ([1]; 168 h, read-out: IC50 of chemotherapeutic agent, MDR inhibitor None): 0.1 µg/mL (≈ 0.299 µM)
